In patent US5424185A, “Human high-affinity neurotransmitter uptake system” (Baylor College of Medicine, priority 1990, dated 1995):
Read-outs that look alike come from different tables or passages of the source.

Key:
[1] = system: GABA transporter (L-GAB1 cells); experiment: [3H]GABA uptake by L-GAB1 cells; format: cell-based, human; settings: competitor at 100-fold excess relative to [3H]GABA
Experimental: Using concentrations of [^3 H] GABA ranging from 2 to 500 μM, the kinetic profile of GABA uptake was determined for both L-GAB1 and L-M cells. The initial velocity of GABA uptake was measured and plotted against the corresponding [^3 H] GABA concentration for both cell lines. […] The velocity profile for L-GAB1 cells was subtracted by that of L-M cells, and the resulting data used for a double-reciprocal plot of velocity-^1 against GABA concentration-^1. The velocity profile for L-M cells was also transformed into a double-reciprocal plot.
Several known inhibitors of high-affinity GABA uptake were used to examine their efficacies in inhibiting [^3 H] GABA uptake by L-GAB1 cells. […] Each of these agents was used at several concentrations ranging from 1 to 100 μM in assays of [^3 H] GABA uptake by L-GAB1 cells. […] GABA uptake by L-GAB1 cells.
L-GAB1 cells were also analyzed in terms of their ligand-specificity in the high-affinity GABA uptake mechanism.

mouse cerebral cortex = settings: membrane preparation, published value, cited from earlier work
[2] = system: mouse pons-medulla-spinal cord; settings: membrane preparation, published value, cited from earlier work
[3] = system: human glycine transporter (L-GLY2 cells)
Experimental: The incubation was conducted for 40 min at 37° C. Each well was washed three times at room temperature with excess Ringer's buffer and then incubated with 50 μl of alkaline phosphatase buffer (100 mM Tris, pH 9.5, 100 mM NaCl, 10 mMMgCl2, 20 μg/ml saponin, 3.2 mg/ml p-nitrophenyl phosphate) for 1-2 hours at 37° C. The phosphatase assay was used as a relative assessment of cell number, and used to normalize the level of [^3 H]glycine associated with each well as described above. The phosphatase reading for each assayed well was plotted versus its corresponding level of [^3 H]glycine-retention.
(§1) L-GLY2 and L-M cells were assayed for the uptake of [^3 H] glycine (0.1 μM) in the presence or absence of competing, unlabelled amino acids or neurotransmitters. Each competing ligand was present in 1000-fold molar excess (100 μM) of the [^3 H] glycine. […] The assays were performed at 37° C. for 40 minutes. Alanine, proline and serine, each at 1 mM, was added to the Ringer's buffer for all assays.
(§2) At each concentration of [^3 H] glycine used, both uptake levels were converted to picomole-equivalents of [^3 H] glycine, then normalized by both length of assay and corresponding protein contents to arrive at the uptake velocity values. The nonspecific uptake velocity was then subtracted from the total uptake velocity to yield the specific uptake velocity. The specific uptake velocities and their corresponding [^3 H] glycine concentrations were analyzed by both Michaelis-Menten and Lineweaver-Burk transformations of the resulting kinetic profiles. For both analyses, data-points were fitted to either linear or logarithmic functions by computerized algorithms.

C6 glioblastoma = settings: read-out: Km, C6 glioblastoma; membrane preparation, published value; cited from earlier work
monkey retina = settings: tissue, published value, cited from earlier work
chicken spinal cord = settings: membrane preparation, published value, cited from earlier work
[4] = system: human brain (post-mortem); settings: membrane preparation, published value, cited from earlier work
goldfish retina = settings: tissue, published value, cited from earlier work
Y79 retinoblastoma = settings: cell, published value, cited from earlier work
frog retina = settings: read-out: Km, frog retina; tissue, published value; cited from earlier work
L-M cells = settings: ligand 100 μM (1000-fold excess), 0.1 μM [3H]glycine, 40 min, 37° C.
Experimental: as §1, §2

rat brain = settings: membrane preparation, published value, cited from earlier work
frog brain = settings: membrane preparation, published value, cited from earlier work
frog spinal cord = settings: membrane preparation, published value, cited from earlier work
rat spinal cord = settings: membrane preparation, published value, cited from earlier work
chicken brain = settings: membrane preparation, published value, cited from earlier work

## NCC(=O)O [glycine]
[1]
  ligand-specificity of [3H]GABA uptake by L-GAB1 cells: not inhibited
Mouse cerebral cortex
  Vmax, mouse cerebral cortex: 340 ± 70 pmol/mg/min
Mouse cerebral cortex; read-out: Km, mouse cerebral cortex
  Km: 15.2 ± 2 µM
[2]
  Vmax, mouse pons-medulla-spinal cord: 3100 ± 100 pmol/mg/min
[2]; read-out: Km, mouse pons-medulla-spinal cord
  Km: 27.6 ± 2.6 µM
[3]; 50 nM to 5 μM [3H]glycine, 10 min, Lineweaver-Burk
  Vmax of glycine uptake, L-GLY2: 10.19±3.32 pmol/min/mg protein
[3]; Table IV
  Vmax, L-GLY2: 10.19 ± 3.32 pmol/mg/min
[3]; ligand 100 μM (1000-fold excess), 0.1 μM [3H]glycine, 40 min, 37° C., 1 mM alanine, proline, serine
  effect of competing ligand on [3H]glycine uptake, L-GLY2: reduced [^3 H] glycine transport into L-GLY2 cells to the same level as that of L-M cells
[3]; read-out: Km, L-GLY2, Table IV
  Km: 1.5 ± 0.2 µM
[3]; read-out: apparent Km of glycine uptake, L-GLY2, 50 nM to 5 μM [3H]glycine, 10 min, Lineweaver-Burk
  Km: 1.5 µM
C6 glioblastoma
  Km: 100 µM
Monkey retina; read-out: Km, monkey retina
  Km: 2.5 ± 0.9 µM
Monkey retina
  Vmax, monkey retina: 3.30 ± 1.60 pmol/mg/min
Chicken spinal cord
  Vmax, chicken spinal cord: 0.65 ± 0.02 pmol/mg/min
Chicken spinal cord; read-out: Km, chicken spinal cord
  Km: 41.8 ± 1 µM
[4]
  Vmax, human brain (post-mortem): 55 ± 25 pmol/mg/min
[4]; read-out: Km, human brain (post-mortem)
  Km: 35 ± 19 µM
Goldfish retina; read-out: Km, goldfish retina
  Km: 8.08 ± 0.7 µM
Goldfish retina
  Vmax, goldfish retina: 8.71 ± 0.54 pmol/mg/min
Y79 retinoblastoma
  Vmax, Y79 retinoblastoma: 138.40 ± 12.40 pmol/mg/min
Y79 retinoblastoma; read-out: Km, Y79 retinoblastoma
  Km: 24.4 ± 2.6 µM
Frog retina
  Km: > 4.7 µM
L-M cells
  effect of competing ligand on [3H]glycine uptake, L-M: not significantly inhibited
Rat brain
  Vmax, rat brain: 0.48 ± 0.07 pmol/mg/min
Rat brain; read-out: Km, rat brain
  Km: 34 ± 1.3 µM
Frog brain
  Vmax, frog brain: 1.14 ± 0.06 pmol/mg/min
Frog brain; read-out: Km, frog brain
  Km: 24.8 ± 1.4 µM
Frog spinal cord
  Vmax, frog spinal cord: 1.52 ± 0.03 pmol/mg/min
Frog spinal cord; read-out: Km, frog spinal cord
  Km: 29 ± 0.7 µM
Rat spinal cord
  Vmax, rat spinal cord: 1.43 ± 0.02 pmol/mg/min
Rat spinal cord; read-out: Km, rat spinal cord
  Km: 46.5 ± 1.6 µM
Chicken brain
  Vmax, chicken brain: 0.32 ± 0.01 pmol/mg/min
Chicken brain; read-out: Km, chicken brain
  Km: 37 ± 2 µM
